Literature values as cited in patent publication US7767228B2, “Pharmaceutical composition for oral application and method for preparing thereof” (Cum Pharma Consulting Anstalt, priority 2004, dated 2010).

- solubility in water: very low
SMILES: O=C(C1CCCCC1)N1CC(=O)N2CCc3ccccc3C2C1 (stereo not shown) [Praziquantel, praziquantel]
